Holding throughout (assay): NCI tumour cell line growth inhibition, 48 h
Test [1] has as its system 786-0 renal.
Test [2] has as its system A549 NSCLC.
In test [3] the test system is CAKI-1 renal.
Test [4] concerns DU-145 prostate.
Test [5] relates to HL-60(TB) leukemia.
For test [6], the system named is IGROV1 ovarian.
In test [7] the test system is MDA-MB-435.
Test [8] has as its system OVCAR-8 ovarian.
Test [9] relates to PC-3 prostate.
Test [10] relates to SK-MEL-2 melanoma.
In test [11] the test system is SN12C renal.

Each structure is given as a SMILES string.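 Values below derive from 48-hour exposures of cells grown in 96-well plates, with endpoints linearly interpolated between the two concentrations bracketing the appropriate inhibition level. TGI marks complete inhibition of growth.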

Take `CCCCc1ccc(Nc2nc(N)c3[nH]cnc3n2)cc1`: the TGI came out at 33.2 µM in test [1]; 79.4 µM in [2]; 37.7 µM in test [3]; 56.7 µM in test [4]; 42.5 µM in test [5]; 27.9 µM in test [6]. Also, the TGI in test [7] came to 40.6 µM; in test [8] it was 31.8 µM; in test [9] it was 39.7 µM; in test [10] it was 57.6 µM; in test [11] it was 31.1 µM.
`C=C1CN(C(=O)c2cc3cc(OC)c(OC)c(OC)c3[nH]2)c2cc([N+](=O)[O-])ccc21`: the TGI in test [1], in test [2], in test [3], in test [4], in test [5] and in [6] was over 100 µM in each case. Also, the TGI in test [7], in test [8], in [9], in test [10] and in test [11] was over 100 µM throughout.
Regarding `O=c1[nH]/c(=C/c2cccs2)c(=O)[nH]/c1=C/c1ccc(OCc2ccccc2)cn1`, the TGI was 25.6 µM in test [1]; over 55.9 µM in test [2]; 8.35 µM in [3]; 5.04 µM in test [4]; 0.244 µM in [5]; over 100 µM in test [6]. Besides, the TGI is 0.0182 µM in test [7]; 65.4 µM in test [8]; over 44.4 µM in test [9]; over 52.2 µM in test [10]; over 100 µM in test [11].
As for `COC(=O)/C=C1\C(=O)N(C(C)=O)c2ccccc21`, the TGI was 20.9 µM in test [1]; over 57.6 µM in [2]; 0.184 µM in [3]; 24.1 µM in test [4]; 5.61 µM in [5]; 22.4 µM in test [6]. Also, the TGI was 32.2 µM in [7]; 45.6 µM in test [8]; over 54.9 µM in test [9]; 33.5 µM in test [10]; 24.3 µM in test [11].
Regarding `O=C1NC(N2CCOCC2)=N/C1=C\c1ccccc1`, the TGI in [1], in test [2], in test [3], in [4], in test [5] and in test [6] was over 100 µM each time. Moreover, the TGI in test [7], in test [8], in [9], in [10] and in [11] was over 100 µM throughout.
Regarding `NC1=CN2c3ccccc3N(CC(=O)N3CCOCC3)C2C=C1` (centres undefined), the TGI in test [1], in [2], in [3], in test [4], in test [5] and in [6] was over 100 µM in each case. In addition, the TGI in test [7], in test [8], in test [9], in test [10] and in [11] was over 100 µM in each case.
Turning to `NCCCCN(CCCN)C(=O)OCc1ccccc1`, the TGI in test [1], in test [2], in test [3], in test [4], in [5] and in [6] was over 100 µM in each case. Moreover, the TGI in test [7], in test [8], in [9], in test [10] and in test [11] was over 100 µM each time.
Consider `CS(=O)(=O)c1nc(-c2cc3c(c(S(C)(=O)=O)n2)CCC3)cc2c1CCC2`, for which the TGI in test [1] was over 100 µM; in test [2] it was over 100 µM; in test [3], over 100 µM; in [4], over 100 µM; in test [5] it was over 100 µM; in [6] it was 85.1 µM. For the same molecule, the TGI in test [7], in test [8], in test [9], in [10] and in [11] was over 100 µM in each case.
Take `Cc1ccc(N=c2oc3c(ccc4ccccc43)nc2Nc2ccc(C)cc2)cc1`: the TGI in [1], in [2], in test [3], in test [4], in test [5] and in [6] was over 100 µM each time. Besides, the TGI in test [7], in test [8], in test [9], in [10] and in test [11] was over 100 µM throughout.
As for `Nc1c2c(nc3ccccc13)-c1ccccc1CCC2`, the TGI stood at 27.1 µM in test [1]; 29.9 µM in test [2]; 32.5 µM in test [3]; 32.8 µM in test [4]; 26.4 µM in [5]; 37.7 µM in [6]. In addition, the TGI in test [7] was found to be 26.3 µM; in [8], 29.1 µM; in test [9], 36.3 µM; in test [10] it was 28.2 µM; in [11], 36.5 µM.
Consider `COc1cc2[nH]c(=O)[nH]c2c2c(C)c[nH]c12`, for which the TGI in test [1], in [2], in test [3], in test [4], in test [5] and in test [6] was over 100 µM in each case. Also, the TGI in test [7], in [8], in test [9], in test [10] and in test [11] was over 100 µM throughout.
On to `COC(CO[Si](C)(C)N[Si](C)(C)OCC(OC)c1ccccc1)c1ccccc1` (centres undefined), for which the TGI in test [1], in [2], in test [3], in test [4], in [5] and in [6] was over 100 µM in each case. Moreover, the TGI in test [7], in [8], in test [9], in test [10] and in [11] was over 100 µM in each case.
On to `CO/C=C(/C(=O)OC)c1ccccc1[C@H]1C[C@@H]1c1ccc(OC)cc1`, for which the TGI was over 100 µM in [1]; 65.6 µM in test [2]; 57.4 µM in test [3]; over 100 µM in test [4]; 62.4 µM in test [5]; 45.5 µM in test [6]. Moreover, the TGI is 27.8 µM in test [7]; over 100 µM in test [8]; over 100 µM in test [9]; 32.1 µM in [10]; over 100 µM in [11].
`CCOC(=O)n1c2ccccc2c2c(O)c(OC)c3c(c21)C(=O)NC3=O`: the TGI was 98.5 µM in test [1]; over 100 µM in [2]; 64.7 µM in test [3]; over 100 µM in test [4]; 49.2 µM in [5]; over 100 µM in [6]. The TGI in test [7], in test [8], in [9], in [10] and in test [11] was over 100 µM each time.
On to `COC(=O)[C@@]12CC3CN(Cc4c1[nH]c1ccccc41)C2CC3=O`, for which the TGI in test [1], in test [2], in test [3], in [4], in test [5] and in test [6] was over 100 µM throughout. In addition, the TGI in test [7], in test [8], in [9], in test [10] and in [11] was over 100 µM in each case.
As to `CC(C)=CCC[C@@H](C)c1c(O)c(O)c(C)c2nc3ccccc3nc12`, the TGI is 12.1 µM in [1]; 9.15 µM in test [2]; 9.01 µM in test [3]; 10.3 µM in test [4]; 2.98 µM in test [5]; 10.7 µM in [6]. The TGI was determined as 18.3 µM in [7]; 24.2 µM in test [8]; 11.3 µM in [9]; 9.26 µM in [10]; 6.38 µM in [11].
In the case of `CN(CCN(C)Cc1ccc(Cl)c(Cl)c1)CCN1CCCC1`, the TGI in test [1] is 64.6 µM; in [2], over 100 µM; in [3], over 100 µM; in [4], over 100 µM; in test [5], over 100 µM; in test [6], over 79.1 µM. The TGI in [7] is 24.3 µM; in test [8], over 100 µM; in test [9] it was over 100 µM; in [10], 59.9 µM; in test [11], over 100 µM.
On to `O=c1[nH]nc(Nc2ccccc2)c2nnn(Cc3ccccc3)c12`, for which the TGI in test [1], in test [2], in test [3], in test [4], in [5] and in test [6] was over 100 µM throughout. For the same molecule, the TGI in test [7], in test [8], in test [9], in [10] and in test [11] was over 100 µM throughout.
`Cc1cc2nc(N)n[n+]([O-])c2cc1C`: the TGI in test [1], in [2], in test [3], in test [4], in test [5] and in test [6] was over 100 µM in each case. Also, the TGI in test [7], in test [8], in [9], in test [10] and in [11] was over 100 µM throughout.

The record behind these values is PubChem BioAssay (NCI).
